Biological target: T1, fVIIa/TF (Homo sapiens, UniProt P08709)
T1 construct: Single-chain fVII may be converted to two-chain fVIIa by factor Xa, factor XIIa, factor IXa, fVIIa or thrombin in vitro
Assay: fX activation assay
Type: biochemical
Details: 100 pM fVIIa, 5 pM TF, 175 nM fX, 5-min incubation, S-2765 substrate, read-out: IC50 TF/FVII/FX
Method: Inhibitory Compounds are Identified in a fX Activation Assay:
The compounds are dissolved in DMSO and mixed with a solution of fVIIa in Ca^2 +-containing buffer (1+5). 30 μl of this mixture was then mixed with 45 μl TF (relipidated in PC/PS vesicles) and 25 μl of a solution containing fX, all in Ca^2 +-containing buffer. This gives final concentrations of 100 pM fVIIa, 5 pM TF, 175 nM fX and various concentrations of the compounds. After a 5-min incubation, the fVIIa/TF-catalyzed activation of fX is terminated by the addition of 50 μl buffer containing enough EDTA to give an excess over the Ca^2+ ions present. 50 μl of a 2-mM solution of S-2765 (fXa substrate) is then added and the fXa formed is allowed to hydrolyze the substrate for 10 minutes during which the absorbance at 405 nm is continuously monitored in a SPECTRAmax™ 340 plate reader. The slope of the absorption curve is compared to that of a control where DMSO alone was added to fVIIa/TF/fX.
IC50 TF/FVII/FX: The IC50 value in μM found from the FX activation assay

T1 sequence (P08709 213-466 limits assumed): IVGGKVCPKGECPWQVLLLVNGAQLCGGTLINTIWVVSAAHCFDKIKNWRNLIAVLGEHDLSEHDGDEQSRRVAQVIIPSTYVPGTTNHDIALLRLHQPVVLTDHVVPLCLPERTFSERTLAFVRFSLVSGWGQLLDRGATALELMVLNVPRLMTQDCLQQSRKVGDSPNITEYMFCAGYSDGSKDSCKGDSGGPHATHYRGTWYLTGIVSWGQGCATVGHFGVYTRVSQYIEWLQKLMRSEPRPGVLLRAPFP
T1 sequence (P08709 61-212 limits assumed): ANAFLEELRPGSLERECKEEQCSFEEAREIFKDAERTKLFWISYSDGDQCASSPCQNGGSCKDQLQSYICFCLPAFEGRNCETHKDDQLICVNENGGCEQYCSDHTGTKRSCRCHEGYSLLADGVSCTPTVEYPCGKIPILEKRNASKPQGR
T1 sequence (P13726 33-295 partner): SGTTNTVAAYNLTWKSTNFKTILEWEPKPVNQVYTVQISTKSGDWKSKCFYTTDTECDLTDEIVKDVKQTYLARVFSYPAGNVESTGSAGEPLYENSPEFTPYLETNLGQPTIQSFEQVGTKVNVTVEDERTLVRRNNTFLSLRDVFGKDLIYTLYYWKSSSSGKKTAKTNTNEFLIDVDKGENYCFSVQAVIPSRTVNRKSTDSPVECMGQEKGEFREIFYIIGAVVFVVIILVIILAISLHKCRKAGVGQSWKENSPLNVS

Row | Compound | IC50 [nM]
1 | Cc1cccc(-c2nc3ccccc3c(=O)o2)c1 [Example 13, 2-m-Tolyl-4H-3,1-benzoxazin-4-one] | 600
2 | Cc1ccc2nc(-c3c(F)cccc3Cl)oc(=O)c2c1 [Example 41, 2-(2-Chloro-6-fluorophenyl)-6-methyl-4H-3,1-benzoxazin-4-one] | 900
3 | COc1ccc(Br)c(-c2nc3ccccc3c(=O)o2)c1 [Example 43, 2-(2-Bromo-5-methoxy-phenyl)-4H-3,1-benzoxazin-4-one] | 1100
4 | COC(=O)c1cccc2nc(-c3ccccc3F)oc(=O)c12 [Example 75, 2-(2-Fluoro-phenyl)-4-oxo-4H-benzo[d][1,3]oxazine-5-carboxylic acid methyl ester] | 5600
5 | O=c1oc(-c2ccccc2[N+](=O)[O-])nc2cccc([N+](=O)[O-])c12 [Example 83, 5-Nitro-2-(2-nitro-phenyl)-benzo[d][1,3]oxazin-4-one] | 320
6 | O=c1oc(-c2cccnc2Cl)nc2cccc([N+](=O)[O-])c12 [Example 87, 2-(2-Chloro-pyridin-3-yl)-5-nitro-benzo[d][1,3]oxazin-4-one] | 2800
7 | O=c1oc(-c2ccccc2F)nc2ccc(C(F)(F)F)cc12 [Example 95, 2-(2-Fluoro-phenyl)-6-trifluoromethyl-benzo[d][1,3]oxazin-4-one] | 3100
8 | O=c1oc(-c2c(F)cccc2F)nc2cccc(Cl)c12 [Example 116, 5-Chloro-2-(2,6-difluoro-phenyl)-benzo[d][1,3]oxazin-4-one] | 170

System: not given
Assay: not given
Details: blood; cited from earlier work

Row | Compound | half-life
9 | heparin | approximately 80 minutes

From US6180625A, “Heterocyclic compounds regulating clotting” (Novo Nordisk A/S, priority 1998, dated 2001)
